Test results from patent US11338021B2, “Combination therapies” (ENZYMATICA AB, priority 2015, dated 2022).
Entries after “also recorded” stand apart in the source; their conditions may differ.

Columns and labels:
Format in all cases: cell-based
[1] = system: biofilms using a combination of Streptococcus pneumonia and Streptococcus mitis; experiment: Dispersal of pre-grown model (super) biofilm in microtiter plate, crystal violet staining, absorbance at 492 nm; conditions: for biofilm disruption by antibiotic and cod trypsin combination compared with antibiotic alone: FIG. 1, Student's t test; for effect of antibiotic alone on biofilm formation: biofilms grown for 4 hours; for disruption of super biofilm by cod trypsins alone: FIGS. 4-6, compared with placebo, treated for 2 minutes
Description: Effects of combination of cod trypsins with selected antibiotics on biofilm dispersal. […] Biofilms using a combination of Streptococcus pneumonia and Streptococcus mitis were grown in a microtiter plate and used as a model for biofilm. The biofilm was treated with an antibiotic or a combination of the antibiotics and cod trypsins. The biofilms were stained with crystal violet followed by dissolution with acetic acid. Biofilm formation was measured as absorbance at 492 nm, and normalized to untreated biofilm. […] P values above bars indicate significance of difference between the two treatments as evaluated by Student's t test.
Effects of combination of cod trypsins with selected antibiotics on biofilm dispersal. […] Biofilms using a combination of Streptococcus pneumonia and Streptococcus mitis were grown in a microtiter plate and used as a model biofilm. The biofilm was treated with cod trypsins, an antibiotic, or a combination of the two. The biofilms were stained with crystal violet followed by dissolution with acetic acid. Biofilm formation was measured as absorbance at 492 nm, and normalized to untreated biofilm. […] P values above bars indicate significance of effects as evaluated by ANOVA analysis.
Each column represents one type of treatment or treatment combination, with the rows representing decreasing concentrations from top to bottom. After treatment biofilms are stained with crystal violet, with a darker colour representing more remaining biofilm. […] The lowest row represents blanks, where the first six holes represent untreated biofilm and the next six represent no biofilm.
Effects of cod trypsins on the super biofilm presented visually after biofilm staining with crystal violet. […] The super biofilm with a combination of Streptococcus pneumonia and Streptococcus mitis were grown in a microtiter plate. The biofilm was treated with cod trypsins or placebo for 2 minutes and the wells were stained to measure the presence (black wells) of biofilm or its absence (clear wells) after treatment.
After treatment the biofilms were stained with crystal violet, with a darker colour representing more remaining biofilm.
Effects of cod trypsins on the super biofilm as measured by spectrophotometry after crystal violet staining and dissolution in acetic acid. […] Biofilms using a combination of Streptococcus pneumonia and Streptococcus mitis were grown in a microtiter plate. The biofilm was treated with cod trypsins or placebo and the wells were stained with crystal violet followed by dissolution with acetic acid. Biofilm formation was measured as absorbance at 492 nm, and normalized to untreated biofilm. […] Data is presented as a bar-plot with the error bars indicating the standard error of the mean (SEM). Data for dilutions of placebo and cod trypsins treated bacterial biofilms are placed next to each other. The Log reduction of biofilm formation of Penzyme compared to that of placebo in the same dilution is above the bars, as is the level of significance indicated by asterisks (*), where * represents a P of <0.05, ** a P<0.01 and *** a P<0.001. Students T-test was used to calculate the significance.
Log reduction of super biofilm by cod trypsins at different concentrations. […] Biofilms using a combination of Streptococcus pneumonia and Streptococcus mitis were grown in a microtiter plate. The biofilm was treated with cod trypsins or placebo and the wells were stained with crystal violet followed by dissolution with acetic acid. Biofilm formation was measured as absorbance at 492 nm, and the reduction compared to placebo treated biofilm on a logarithmic scale.
Biofilms using a combination of Streptococcus pneumonia and Streptococcus mitis were grown in a microtiter plate. The biofilm was treated with an antibiotic or a combination of the antibiotics and cod trypsins. The biofilms were stained with crystal violet followed by dissolution with acetic acid.

[2] = system: biofilm forming bacteria Streptococcus pneumonia and Streptococcus mitis; experiment: Pre-treatment of planktonic bacteria before biofilm formation (4 hours), crystal violet staining, absorbance at 492 nm; conditions: FIGS. 7-8, compared with placebo, biofilms grown 4 hours, normalized to untreated biofilm
Description: Effects of cod trypsins pre-treatment on biofilm formation. […] Biofilms using a combination of Streptococcus pneumonia and Streptococcus mitis were grown in a microtiter plate after being briefly treated with cod trypsins or placebo. After allowing the biofilms to grow for 4 hours the wells were stained with crystal violet followed by dissolution with acetic acid. Biofilm formation was measured as absorbance at 492 nm, and normalized to untreated biofilm. […] Data is presented as a boxplot where the top of the rectangle indicates the third quartile, a horizontal line near the middle of the rectangle indicates the median, and the bottom of the rectangle indicates the first quartile. A vertical line extends from the top of the rectangle to indicate the maximum value, and another vertical line extends from the bottom of the rectangle to indicate the minimum value.
Effects of cod trypsin pre-treatment on biofilm formation. […] Biofilms using a combination of Streptococcus pneumonia and Streptococcus mitis were grown in a microtiter plate after being treated with cod trypsins or placebo. After allowing the biofilms to grow for 4 hours the wells were stained with crystal violet followed by dissolution with acetic acid. Biofilm formation was measured as absorbance at 492 nm, and normalized to untreated biofilm. […] Statistical significance of the difference, as evaluated by Student's t test, is indicated by symbols above the boxes where n.s. is p >0.05, * is p<0.05, ** p<0.01, and *** p<0.001.
After allowing the biofilms to grow for 4 hours the wells were stained with crystal violet followed by dissolution with acetic acid. Biofilm formation was measured as absorbance at 492 nm, and normalized to untreated biofilm. […] Cod trypsins prevent biofilm formation in a concentration dependent manner. […] Biofilm formation was measured as absorbance at 492 nm, and normalized to untreated biofilm. […] Statistical significance of the difference, as evaluated by Student's t test, is indicated by symbols above the boxes where n.s. is p >0.05, * is p<0.05, ** p<0.01, and *** p<0.001.

bacteria = experiment: Lethality of cod trypsin to bacteria (statement, no method given)
[3] = absorbance at 492 nm normalized to untreated biofilm
[4] = FIG. 3, 96 well plate image, crystal violet

Q: With `CO/N=C(\C(=O)N[C@@H]1C(=O)N2C(C(=O)O)=C(COC(C)=O)CS[C@H]12)c1csc(N)n1` [cefotaxime] as the molecule, how does the “biofilm disruption by antibiotic and cod trypsin combination compared with antibiotic alone” value [1, 3] read?
A: more effective in disrupting bacterial biofilm than antibiotics alone

Q: What about the “biofilm disruption by combination of cod trypsin and antibiotic compared with either alone” value ([1]; FIG. 2, absorbance at 492 nm normalized to untreated biofilm, ANOVA) of the same molecule?
A: more effective in disrupting bacterial biofilm than either cod trypsins or antibiotics alone

Q: For `CC[C@H]1OC(=O)[C@H](C)[C@@H](O[C@H]2C[C@@](C)(OC)[C@@H](O)[C@H](C)O2)[C@H](C)[C@@H](O[C@@H]2O[C@H](C)C[C@H](N(C)C)[C@H]2O)[C@](C)(O)C[C@@H](C)C(=O)[C@H](C)[C@@H](O)[C@]1(C)O` [erythromycin], which “biofilm disruption by antibiotic and cod trypsin combination compared with antibiotic alone” value [1, 3] is on record?
A: more effective in disrupting bacterial biofilm than antibiotics alone

Q: How did the “biofilm disruption by antibiotic and cod trypsin combination compared with antibiotic alone” value [1, 3] turn out when `CN[C@H](CC(C)C)C(=O)N[C@H]1C(=O)N[C@@H](CC(N)=O)C(=O)N[C@H]2C(=O)N[C@H]3C(=O)N[C@H](C(=O)N[C@H](C(=O)O)c4cc(O)cc(O)c4-c4cc3ccc4O)[C@H](O)c3ccc(c(Cl)c3)Oc3cc2cc(c3O[C@@H]2O[C@H](CO)[C@@H](O)[C@H](O)[C@H]2O[C@H]2C[C@](C)(N)[C@H](O)[C@H](C)O2)Oc2ccc(cc2Cl)[C@H]1O` [vancomycin] was run?
A: not to have significantly increased efficacy against the model biofilm when combined with trypsin

Q: What about the “effect of antibiotic in combination with cod trypsin on efficacy of cod trypsin” value [1, 4] of the same molecule?
A: can increase the efficacy of cod trypsin

Q: And the “effect of antibiotic alone on biofilm formation” value [1, 4]?
A: the drug alone appears to increase biofilm formation

Q: And the “effect of antibiotic alone on biofilm formation” value ([1]; FIG. 3, 96 well plate image, crystal violet, listed as Vancomycin)?
A: may increase biofilm formation

Q: For `Cc1onc(-c2ccccc2)c1C(=O)N[C@@H]1C(=O)N2[C@@H]1SC(C)(C)[C@@H]2C(=O)O` [oxacillin], which “biofilm disruption by antibiotic and cod trypsin combination compared with antibiotic alone” value [1, 3] is on record?
A: more effective in disrupting bacterial biofilm than antibiotics alone

B1: cod trypsin: trypsin from Atlantic cod (Gadus morhua), a polypeptide having serine protease activity (protein, listed as Gadus morhua)
chain: IVGGYECTKHSQAHQVSLNSGYHFCGGSLVSKDWVVSAAHCYKSVLRVRLGEHHIRVNEGTEQYISSSSVIRHPNYSSYNINNDIMLIKLTKPATLNQYVHAVALPTECAADATMCTVSGWGNTMSSVADGDKLQCLSLPILSHADCANSYPGMITQSMFCAGYLEGGKDSCQGDSGGPVVCNGVLQGVVSWGYGCAERDHPGVYAKVCVLSGWVRDTMANY
Q: What does the source list for B1?
A: time in which cod trypsins disrupt bacterial biofilm ([1]; FIG. 6, at concentrations 8 U/g or higher): less than 2 minutes; concentrations at which cod trypsins are very effective in disrupting bacterial biofilm ([1]; FIG. 6, log reduction compared to placebo treated biofilm): ≥ 8 U/g; disruption of super biofilm by cod trypsins alone [1]: effective at removing biofilms at the higher concentration; disruption of super biofilm by cod trypsins alone ([1]; listed as cod trypsins): very effective in disrupting the super biofilm; also recorded: very effective in disrupting bacterial biofilm; also recorded: disrupt the super biofilm in a concentration dependent manner; also recorded: quite capable of both removing bacteria from and partially prevent reattachment of bacteria to surfaces in a concentration dependent manner; prevention of biofilm formation by pre-treatment of bacteria [2]: can prevent the formation of biofilms in a concentration dependent manner; prevention of biofilm formation by pre-treatment of bacteria ([2]; listed as cod trypsin composition): very effective in preventing bacterial biofilm formation; prevention of biofilm formation by pre-treatment of bacteria ([2]; listed as cod trypsins): very effective in preventing bacterial biofilm formation; lethality to the bacteria (bacteria): not lethal to the bacteria
